Data as given in US11207312B2, “Metallo-beta-lactamase inhibitors and methods of use thereof” (priority 2017, dated 2021).

Legend:
[1] = system: P. aeruginosa MB9799 (efflux-, IMP-1 plasmid); assay type: cell-based, Pseudomonas aeruginosa; settings: efflux − (MB9799) strain; imipenem at 2 μg/mL; in the presence of a class A, C, D serine β-lactamase inhibitor closely related to relebactam
Summary of the method: (§1)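 Isogenic P. aeruginosa PAO1 strains (efflux+ and multiple-efflux-pump-disrupted) carrying plasmid IMP-1, with inducible AmpC, tested by broth microdilution. Imipenem and/or ceftazidime fixed, usually at CLSI breakpoint, plus fixed class A/C β-lactamase inhibitor; titrated MBL inhibitor concentration restoring susceptibility recorded and compared between strains as efflux fold difference.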

[2] = system: Klebsiella pneumoniae expressing VIM-1 (IHMA599644); assay type: cell-based; settings: with imipenem 1 μg/ml; 95% inhibition of bacterial growth
Summary of the method: (§2)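 Synergy with imipenem at a fixed 1 μg/ml was scored by absorbance following 22–24 h incubation at 35 °C; the potentiating concentration (MITC95) was the lowest giving 95% growth inhibition.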

[3] = system: Escherichia coli expressing NDM-1 (CLB30016); assay type: cell-based; settings: with imipenem 1 μg/ml; 95% inhibition of bacterial growth
Summary of the method: as §2

[4] = system: Serratia marcescens expressing IMP-1 (CL5741); assay type: cell-based; settings: with imipenem 1 μg/ml; 95% inhibition of bacterial growth
Summary of the method: as §2

NDM-1 = NDM-1 (Klebsiella pneumoniae, UniProt C7C422); test: biochemical; assay type: biochemical; settings: CCF2-FA fluorescence assay, 2 hours at 25° C.
Sequence of NDM-1 (C7C422 whole entry, looked up, species assumed): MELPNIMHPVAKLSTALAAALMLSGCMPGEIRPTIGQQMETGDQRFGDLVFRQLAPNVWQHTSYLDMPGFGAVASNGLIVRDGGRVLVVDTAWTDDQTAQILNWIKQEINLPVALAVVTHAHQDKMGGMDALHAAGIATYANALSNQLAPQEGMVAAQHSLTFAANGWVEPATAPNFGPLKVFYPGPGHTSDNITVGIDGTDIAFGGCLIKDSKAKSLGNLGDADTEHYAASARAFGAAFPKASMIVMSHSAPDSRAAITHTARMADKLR
Summary of the method: (§3)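 Each enzyme (final 1 pM NDM-1, 2 pM IMP-1, 30 pM VIM-1) was incubated with test inhibitor (20 μM to 0.00063 μM) and 1.25 μM CCF2-FA for 2 hours at 25° C in zinc-supplemented phosphate buffer, pH 7. Fluorescence at 460 nm was then read and IC50 fitted with four parameters.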

[5] = system: P. aeruginosa MB9798 (efflux+, IMP-1 plasmid); settings: for MB9798 MITC95 P. aeruginosa uM Efflux WT: efflux + (MB9798) strain, imipenem at 2 μg/mL, in the presence of a class A, C, D serine β-lactamase inhibitor closely related to relebactam; for Efflux ratio: fold difference between efflux+ (MB9798) and efflux− (MB9799) strains
Summary of the method: as §1

VIM-2 = VIM-2 (Escherichia coli, UniProt Q5U7L7); test: biochemical; settings: CCF2-FA fluorescence assay; read-out: VIM2 IC50
IMP-1 = IMP-1 (Serratia marcescens, UniProt P52699); test: biochemical; settings: CCF2-FA fluorescence assay, 2 hours at 25° C.; read-out: IMP1 IC50
Sequence of IMP-1 (P52699 whole entry, looked up, species assumed): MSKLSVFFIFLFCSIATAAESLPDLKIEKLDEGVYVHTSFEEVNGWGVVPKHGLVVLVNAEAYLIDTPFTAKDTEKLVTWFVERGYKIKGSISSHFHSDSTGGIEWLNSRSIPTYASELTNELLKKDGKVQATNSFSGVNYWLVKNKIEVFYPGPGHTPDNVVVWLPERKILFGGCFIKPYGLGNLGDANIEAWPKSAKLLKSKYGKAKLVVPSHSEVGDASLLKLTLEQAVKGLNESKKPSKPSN
Summary of the method: as §3

VIM-1 = VIM-1 (Pseudomonas aeruginosa (strain ATCC 15692 / DSM 22644 / CIP 104116 / JCM 14847 / LMG 12228 / 1C / PRS 101 / PAO1), UniProt A0A0F7KYQ8); test: biochemical; settings: CCF2-FA fluorescence assay, 2 hours at 25° C.; read-out: VIM1 IC50
Summary of the method: as §3

NCCN1CCN(c2ccc(S(=O)(=O)NC[C@H](O)CN)c(S(N)(=O)=O)c2-c2nnn[nH]2)CC1 [Example 51, (R)-N1-(3-amino-2-hydroxypropyl)-4-(4-(2-aminoethyl)piper-azin-1-yl)-3-(1H-tetrazol-5-yl)benzene-1,2-disulfonamide]
MB9799 MITC95 P. aeruginosa uM Efflux Mutant [1]: 0.39 µM | IHMA599644 K. pneumoniae MITC95 VIM [2]: 0.78 µM | CLB30016 E. coli MITC95 NDM [3]: 0.78 µM | CL5741 S. marcescens MITC95 IMP [4]: 0.39 µM | IC50 (NDM-1): 1.4 nM | MB9798 MITC95 P. aeruginosa uM Efflux WT [5]: 0.78 µM | Efflux ratio [5]: 2.00 | IC50 (VIM-2): 3.07 nM | IC50 (IMP-1): 1.92 nM | IC50 (VIM-1): 0.29 nM

NS(=O)(=O)c1c(S(=O)(=O)N[C@@H]2CCNC2)ccc(N2CCC3(CC2)CNC3)c1-c1nnn[nH]1 [Example 52, (R)-N1-(pyrrolidin-3-yl)-4-(2,7-diazaspiro[3.5]no-nan-7-yl)-3-(1H-tetrazol-5-yl)benzene-1,2-disulfonamide]
MB9799 MITC95 P. aeruginosa uM Efflux Mutant [1]: 0.78 µM | IHMA599644 K. pneumoniae MITC95 VIM [2]: 1.56 µM | CLB30016 E. coli MITC95 NDM [3]: 0.78 µM | CL5741 S. marcescens MITC95 IMP [4]: 1.56 µM | IC50 (NDM-1): 0.48 nM | MB9798 MITC95 P. aeruginosa uM Efflux WT [5]: 0.78 µM | Efflux ratio [5]: 1.00 | IC50 (VIM-2): 8.18 nM | IC50 (IMP-1): 3.06 nM | IC50 (VIM-1): 0.5 nM

NS(=O)(=O)c1c(S(=O)(=O)C2CNC2)ccc(N2CCN(CCCO)CC2)c1-c1nnn[nH]1 [Example 53, 6-(azetidin-3-ylsulfonyl)-3-[4-(3-hydroxypropyl)piperazin-1-yl]-2-(1H-tetrazol-5-yl)benzenesulfonamide]
MB9799 MITC95 P. aeruginosa uM Efflux Mutant [1]: 1.56 µM | IHMA599644 K. pneumoniae MITC95 VIM [2]: 3.13 µM | CLB30016 E. coli MITC95 NDM [3]: 0.39 µM | CL5741 S. marcescens MITC95 IMP [4]: 0.39 µM | IC50 (NDM-1): 8.79 nM | MB9798 MITC95 P. aeruginosa uM Efflux WT [5]: 6.25 µM | Efflux ratio [5]: 4.00 | IC50 (VIM-2): 35.5 nM | IC50 (IMP-1): 7.81 nM | IC50 (VIM-1): 25.1 nM

NS(=O)(=O)c1c(S(=O)(=O)C2CNC2)ccc(N2CCN(CCO)CC2)c1-c1nnn[nH]1 [Example 54, 6-(azetidin-3-ylsulfonyl)-3-[4-(2-hydroxyethyl)piperazin-1-yl]-2-(1H-tetrazol-5-yl)benzenesulfonamide]
MB9799 MITC95 P. aeruginosa uM Efflux Mutant [1]: 1.56 µM | IHMA599644 K. pneumoniae MITC95 VIM [2]: 6.25 µM | CLB30016 E. coli MITC95 NDM [3]: 0.39 µM | CL5741 S. marcescens MITC95 IMP [4]: 0.39 µM | IC50 (NDM-1): 16.7 nM | MB9798 MITC95 P. aeruginosa uM Efflux WT [5]: 6.25 µM | Efflux ratio [5]: 4.00 | IC50 (VIM-2): 69.5 nM | IC50 (IMP-1): 21.9 nM | IC50 (VIM-1): 66.1 nM

NS(=O)(=O)c1c(S(=O)(=O)C2CNC2)ccc(N2C[C@H](O)C[C@@H](O)C2)c1-c1nnn[nH]1 [Example 55, 6-(azetidin-3-ylsulfonyl)-3-[(3R,5R)-3,5-dihydroxypiperidin-1-yl]-2-(1H-tetrazol-5-yl)benzenesulfonamide]
MB9799 MITC95 P. aeruginosa uM Efflux Mutant [1]: 6.25 µM | IHMA599644 K. pneumoniae MITC95 VIM [2]: 12.50 µM | CLB30016 E. coli MITC95 NDM [3]: 1.56 µM | CL5741 S. marcescens MITC95 IMP [4]: 12.50 µM | IC50 (NDM-1): 51.5 nM | MB9798 MITC95 P. aeruginosa uM Efflux WT [5]: 100.00 µM | Efflux ratio [5]: 16.00 | IC50 (VIM-2): 145 nM | IC50 (IMP-1): 200 nM | IC50 (VIM-1): 62.3 nM

NS(=O)(=O)c1c(S(=O)(=O)C2CNC2)ccc(N2CCC(CCO)CC2)c1-c1nnn[nH]1 [Example 56, 6-(azetidin-3-ylsulfonyl)-3-[4-(2-hydroxyethyl)piperidin-1-yl]-2-(1H-tetrazol-5-yl)benzenesulfonamide]
MB9799 MITC95 P. aeruginosa uM Efflux Mutant [1]: 1.56 µM | IHMA599644 K. pneumoniae MITC95 VIM [2]: 6.25 µM | CLB30016 E. coli MITC95 NDM [3]: 6.25 µM | CL5741 S. marcescens MITC95 IMP [4]: 3.13 µM | IC50 (NDM-1): 0.76 nM | MB9798 MITC95 P. aeruginosa uM Efflux WT [5]: 6.25 µM | Efflux ratio [5]: 4.00 | IC50 (VIM-2): 0.82 nM | IC50 (IMP-1): 0.45 nM | IC50 (VIM-1): 0.25 nM

NS(=O)(=O)c1c(S(=O)(=O)C2CNC2)ccc(N2CCCC(CO)C2)c1-c1nnn[nH]1 (centres unmarked) [Example 57, 6-(azetidin-3-ylsulfonyl)-3-[3-(hydroxymethyl)piperidin-1-yl]-2-(1H-tetrazol-5-yl)benzenesulfonamide]
MB9799 MITC95 P. aeruginosa uM Efflux Mutant [1]: 1.56 µM | IHMA599644 K. pneumoniae MITC95 VIM [2]: 12.50 µM | CLB30016 E. coli MITC95 NDM [3]: 3.13 µM | CL5741 S. marcescens MITC95 IMP [4]: 3.13 µM | IC50 (NDM-1): 2.48 nM | MB9798 MITC95 P. aeruginosa uM Efflux WT [5]: 25.00 µM | Efflux ratio [5]: 15.99 | IC50 (VIM-2): 1.87 nM | IC50 (IMP-1): 4.38 nM | IC50 (VIM-1): 1.44 nM

NS(=O)(=O)c1c(S(=O)(=O)C2CNC2)ccc(N2CCC(CO)CC2)c1-c1nnn[nH]1 [Example 58, 6-(azetidin-3-ylsulfonyl)-3-[4-(hydroxymethyl)piperidin-1-yl]-2-(1H-tetrazol-5-yl)benzenesulfonamide]
MB9799 MITC95 P. aeruginosa uM Efflux Mutant [1]: 1.56 µM | IHMA599644 K. pneumoniae MITC95 VIM [2]: 6.25 µM | CLB30016 E. coli MITC95 NDM [3]: 3.13 µM | CL5741 S. marcescens MITC95 IMP [4]: 6.25 µM | IC50 (NDM-1): 1.03 nM | MB9798 MITC95 P. aeruginosa uM Efflux WT [5]: 6.25 µM | Efflux ratio [5]: 4.00 | IC50 (VIM-2): 1.67 nM | IC50 (IMP-1): 0.85 nM | IC50 (VIM-1): 0.42 nM

CC1(O)CCCN(c2ccc(S(=O)(=O)C3CNC3)c(S(N)(=O)=O)c2-c2nnn[nH]2)C1 (centres unmarked) [Example 59, 6-(azetidin-3-ylsulfonyl)-3-(3-hydroxy-3-methylpiperidin-1-yl)-2-(1H-tetrazol-5-yl)benzenesulfonamide]
MB9799 MITC95 P. aeruginosa uM Efflux Mutant [1]: 3.13 µM | IHMA599644 K. pneumoniae MITC95 VIM [2]: 6.25 µM | CLB30016 E. coli MITC95 NDM [3]: 6.25 µM | CL5741 S. marcescens MITC95 IMP [4]: 6.25 µM | IC50 (NDM-1): 3.22 nM | MB9798 MITC95 P. aeruginosa uM Efflux WT [5]: 50.00 µM | Efflux ratio [5]: 16.00 | IC50 (VIM-2): 2.18 nM | IC50 (IMP-1): 8.38 nM | IC50 (VIM-1): 1.84 nM

NS(=O)(=O)c1c(S(=O)(=O)C2CNC2)ccc(N2CCC[C@H](O)C2)c1-c1nnn[nH]1 [Example 60, 6-(azetidin-3-ylsulfonyl)-3-[(3S)-3-hydroxypiperidin-1-yl]-2-(1H-tetrazol-5-yl)benzenesulfonamide]
MB9799 MITC95 P. aeruginosa uM Efflux Mutant [1]: 3.13 µM | IHMA599644 K. pneumoniae MITC95 VIM [2]: 6.25 µM | CLB30016 E. coli MITC95 NDM [3]: 3.13 µM | CL5741 S. marcescens MITC95 IMP [4]: 3.13 µM | IC50 (NDM-1): 4.23 nM | MB9798 MITC95 P. aeruginosa uM Efflux WT [5]: 12.50 µM | Efflux ratio [5]: 4.00 | IC50 (VIM-2): 2.67 nM | IC50 (IMP-1): 6.05 nM | IC50 (VIM-1): 1.44 nM

NS(=O)(=O)c1c(S(=O)(=O)C2CNC2)ccc(N2CC[C@H](CO)[C@H](F)C2)c1-c1nnn[nH]1 [Example 61, 6-(azetidin-3-ylsulfonyl)-3-[(3S,4R)-3-fluoro-4-(hydroxymethyl)piperidin-1-yl]-2-(1H-tetrazol-5-yl)benzenesulfonamide]
MB9799 MITC95 P. aeruginosa uM Efflux Mutant [1]: 1.56 µM | IHMA599644 K. pneumoniae MITC95 VIM [2]: 6.25 µM | CLB30016 E. coli MITC95 NDM [3]: 1.56 µM | CL5741 S. marcescens MITC95 IMP [4]: 3.13 µM | IC50 (NDM-1): 0.9 nM | MB9798 MITC95 P. aeruginosa uM Efflux WT [5]: 6.25 µM | Efflux ratio [5]: 4.00 | IC50 (VIM-2): 2.12 nM | IC50 (IMP-1): 1.28 nM | IC50 (VIM-1): 0.44 nM
